Patent US20260355182A1, “ISOQUINOLINE DERIVATIVE, SYNTHESIS METHOD THEREFOR, AND USE THEREOF” (Harbin Gloria Pharmaceuticals Co., Ltd., priority 2023, published 2026)

Target: T1, Pgk1 (Homo sapiens, UniProt P00558)
T1 sequence (P00558 1-417): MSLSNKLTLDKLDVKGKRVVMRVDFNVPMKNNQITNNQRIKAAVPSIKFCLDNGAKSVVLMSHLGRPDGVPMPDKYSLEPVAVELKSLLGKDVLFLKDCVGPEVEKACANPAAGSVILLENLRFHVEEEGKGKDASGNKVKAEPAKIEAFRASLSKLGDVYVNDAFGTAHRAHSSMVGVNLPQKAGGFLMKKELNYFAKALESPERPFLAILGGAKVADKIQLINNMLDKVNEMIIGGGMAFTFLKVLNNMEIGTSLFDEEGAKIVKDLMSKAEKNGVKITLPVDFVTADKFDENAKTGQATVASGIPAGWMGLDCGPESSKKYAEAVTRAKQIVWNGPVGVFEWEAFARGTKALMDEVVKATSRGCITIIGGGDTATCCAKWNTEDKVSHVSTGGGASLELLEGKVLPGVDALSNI
Test: Affinity for Pgk1 protein (Biacore T200)
Type: binding
Conditions: drug alone; amount of small-molecule drug bound
Experimental: Example 30: Determination of Affinities of Compounds for Pgk1 Protein
Purified Pgk1 protein (with a concentration of 1 mg/mL) was immobilized on a Biacore T200 chip. […] The obtained curves can calculate parameters such as affinity and Rmax.

Compound | Rmax
Nc1nc(N2CCN(C(=O)[C@@H]3CCCN3)CC2)cc2cc3c(cc12)OCO3 [Compound T9] | 87 RU
CC1Oc2cc3cc(N4CCN(C(=O)[C@H]5CCCO5)CC4)nc(N)c3cc2O1 (stereo partly shown) [Compound T3] | 93 RU
Nc1nc(N2CCN(C(=O)[C@H]3CCCO3)CC2)cc2cc3c(cc12)OCO3 [Compound T1] | 116 RU
CC1(C)Oc2cc3cc(N4CCN(C(=O)[C@H]5CCCO5)CC4)nc(N)c3cc2O1 [Compound T4] | 75 RU
Nc1ncnc2c1ncn2[C@@H]1O[C@H](COP(=O)(O)OP(=O)(O)O)[C@@H](O)[C@H]1O [ADP, reference compound] | 35 RU
Nc1nc(N2CCN(C(=O)C3CCCC3)CC2)cc2cc3c(cc12)OCO3 [Compound T7] | 159 RU
Nc1nc(N2CCN(C(=O)[C@H]3CCCN3)CC2)cc2cc3c(cc12)OCO3 [Compound T8] | 87 RU
Nc1nc(N2CCN(C(=O)[C@H]3CCCO3)CC2)cc2cc3c(cc12)CCO3 [Compound T5] | 86 RU

Tested on: glucose metabolism
Test: not given
Conditions: human, in vivo; cited from earlier work

Compound | Clinical efficacy on glucose metabolism
O=C(O)c1cccnc1 [vitamin B3] | either no effect or clinical efficacy in only a small subset of the population
CN(CC(=O)O)C(=N)N [creatine] | either no effect or clinical efficacy in only a small subset of the population
Oc1ccc(C=Cc2cc(O)cc(O)c2)cc1 [resveratrol, reference compound] | either no effect or clinical efficacy in only a small subset of the population
COC1=C(OC)C(=O)C(C/C=C(\C)CC/C=C(\C)CC/C=C(\C)CC/C=C(\C)CC/C=C(\C)CC/C=C(\C)CC/C=C(\C)CC/C=C(\C)CC/C=C(\C)CCC=C(C)C)=C(C)C1=O [coenzyme Q10] | either no effect or clinical efficacy in only a small subset of the population
insulin | either no effect or clinical efficacy in only a small subset of the population
CO[C@H]1C[C@@H]2CC[C@@H](C)[C@@](O)(O2)C(=O)C(=O)N2CCCC[C@H]2C(=O)O[C@H]([C@H](C)C[C@@H]2CC[C@@H](O)[C@H](OC)C2)CC(=O)[C@H](C)/C=C(\C)[C@@H](O)[C@@H](OC)C(=O)[C@H](C)C[C@H](C)/C=C/C=C/C=C/1C [rapamycin, reference compound] | either no effect or clinical efficacy in only a small subset of the population
CN(C)C(=N)N=C(N)N [metformin, reference compound] | either no effect or clinical efficacy in only a small subset of the population

Tested on: patients
Test: not given
Conditions: cited from earlier work

Compound | Side effects
COc1cc2nc(N(C)CCCNC(=O)C3CCCO3)nc(N)c2cc1OC (stereo not shown) [alfuzosin] | intraoperative floppy iris syndrome (IFIS), hypotension, fatigue, dizziness, syncope, and blurred vision
